The target in one assay is T1, AuroraA-TPX2 (Homo sapiens, UniProt O14965).
T1 construct: 20 μL of AuroraA-TPX2 KD GST for a final volume of about 41 μL; GST
T1 sequence (O14965 133-383 limits assumed): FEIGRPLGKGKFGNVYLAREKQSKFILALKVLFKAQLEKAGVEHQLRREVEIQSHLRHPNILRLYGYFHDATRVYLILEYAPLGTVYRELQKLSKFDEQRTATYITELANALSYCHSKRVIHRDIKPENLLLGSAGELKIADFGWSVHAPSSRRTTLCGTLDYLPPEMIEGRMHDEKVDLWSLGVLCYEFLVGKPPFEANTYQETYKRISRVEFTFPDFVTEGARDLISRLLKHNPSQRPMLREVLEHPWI
T1 sequence (Q9ULW0 1-43 partner limits assumed): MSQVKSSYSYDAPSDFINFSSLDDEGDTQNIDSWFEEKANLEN
Kind of assay: AuroraA-TPX2 Homogeneous Time Resolved Fluorescent (HTRF) kinase assay. The assay is classed as biochemical. As to conditions: for IC50: average, read-out: AurA_IC50_IP (uM Avg). Summed up:
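HTRF read-out (Eu 615 nm to APC 655 nm) of phosphorylated biotin-PLK, detected with 0.02 nM europium anti-phosphoPLK antibody and 0.0005 mg/mL SA-APC after overnight equilibration.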
On the technique in general: TR-FRET usually uses a lanthanide donor and a delayed reading to cut background.

In the next assay the target is T2, AuroraB (Homo sapiens, UniProt Q96GD4).
T2 construct: 20 μL of AuroraB FL H is for a final volume of 41 μL; His
As to the kind of experiment: AuroraB Homogeneous Time Resolved Fluorescent (HTRF) kinase assay. The assay is classed as biochemical. As to conditions: for IC50: average, read-out: AurB_IC50_IP (uM Avg). The method in brief: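 Read-out is time-resolved FRET between europium anti-phospho-H3 antibody and streptavidin-APC, added in EDTA buffer to stop the reaction and equilibrated about 60 min (ex 320, em 615 and 655 nm). Preceding reaction: ~90 min, full-length enzyme, ATP, 0.1 μM biotin-Histone H3 substrate, Mg/Mn HEPES buffer pH 7.5.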

In a further assay the test system is HeLa cells. Kind of assay: HeLa cell 24 hr ploidy assay (DNA content). The settings on record: for EC50: 4N DNA content, average, read-out: 24h_4N Ploidy EC50_IP (uM Avg). Format: cell-based. The procedure:
HeLa Cell 24 hr Ploidy Assay Protocol
The purpose of this assay is to evaluate the ability of selected individual compounds to induce Deoxyribonucleic acid (DNA) content (ploidy) in cells through failed cell division. Cell cycle analysis is a rapid and efficient way to evaluate the status of DNA content (ploidy) of a given cell. HeLa cells (1×10^4 HeLa cells/well) in 100 ul of media (MEM+10% FBS) were plated in 96-well plates (Packard View) and cultured for 24 hrs at 37° C. maintained in a 5% CO2 atmosphere. […] The compounds were serially diluted in DMSO (0.25% final concentration). The cells were fixed (3.7% Formaldehyde and 1% glutaraldehyde) and permeabilized (1×PBS with 1% BSA and 0.2% Triton X-100) in preparation for nuclear staining. The well plates were stained for 45 minutes at RT in the dark using Hoechest 33342 nuclear stain at 0.5 ug.ml (Stock of 10 mg/ml, Invitrogen, CA, Cat # H3570). The nuclear stain was removed by aspiration and the cells were washed with wash buffer. A Cellomics Array Scan Vti plate reader was used to acquire the DNA ploidy data of the cells using Cell Cycle bioapplication. Numbers for each of “valid cell count/well”, “% of 4N cells” and “% of >4Ncells” were calculated with the assistance of an Activity Base 5.1ca software and dose curves were generated using an XLFit software. With XLFit, final EC50 IP and EC50 transit values, as well as the Max and Min, were calculated for each curve.

pEC50, pIC50: −log10 of the molar value. Where two headings read alike, the source gives them in different places. A value given as a limit tells only on which side of the number the result lay.

T2 sequence (Q96GD4 whole entry): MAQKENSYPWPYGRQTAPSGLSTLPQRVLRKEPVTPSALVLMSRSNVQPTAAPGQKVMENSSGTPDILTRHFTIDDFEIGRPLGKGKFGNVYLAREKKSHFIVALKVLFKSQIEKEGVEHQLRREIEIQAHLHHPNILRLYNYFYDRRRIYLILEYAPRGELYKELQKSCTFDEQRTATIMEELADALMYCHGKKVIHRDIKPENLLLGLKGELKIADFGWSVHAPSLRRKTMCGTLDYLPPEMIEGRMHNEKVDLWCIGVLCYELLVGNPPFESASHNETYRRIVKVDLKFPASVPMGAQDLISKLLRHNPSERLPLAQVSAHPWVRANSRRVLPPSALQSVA

Regarding “(7-(4-(4-(4-methylthiophen-2-yl)phthalazin-1-ylamino)phenylthio)thieno[3,2-b]pyridin-2-yl)(morpholino)methanone [compound 296]”, the pIC50 on AuroraA-TPX2 (given as class symbol, read-out: AurA_IC50_IP (class symbol)) was > 7.00; on AuroraB (given as class symbol, read-out: AurB_IC50_IP (class symbol)), > 7.00. Also, the pEC50 in the assay with HeLa cells (given as class symbol, read-out: 24h_4N Ploidy EC50_IP (class symbol)) was > 7.00.
In the case of “4-(4-chlorophenyl)-N-(3-fluoro-4-(4-quinolinyloxy)phenyl)-1-phthalazinamine [compound 244]”, the IC50 is 0.048 µM on AuroraA-TPX2 and 0.003 µM at AuroraB. Further, in the assay with HeLa cells, the EC50 was found to be 0.04 µM.
For “4-(4,5-dimethylthiophen-2-yl)-N-(4-(7-methoxy-1,5-naphthyridin-4-yloxy)phenyl)phthalazin-1-amine [Example 34]”, in that order: 0.013 µM, 0.01 µM and 0.062 µM.
Take “N-(5-(7-methoxy-1,5-naphthyridin-4-yloxy)pyridin-2-yl)-4-phenylphthalazin-1-amine [Example 54]”: the IC50 stood at 0.176 µM at AuroraA-TPX2 and 0.02 µM on AuroraB. Besides, in the assay with HeLa cells, the EC50 is 0.028 µM.
Consider `COc1cnc2c(Oc3ccc(Nc4nnc(-c5cc6ccccc6o5)c5ccccc45)cc3)ccnc2c1` [compound 176, 4-(1-benzofuran-2-yl)-N-(4-((7-(methyloxy)-1,5-naphthyridin-4-yl)oxy)phenyl)-1-phthalazinamine], for which the results for the IC50 at AuroraA-TPX2 and on AuroraB were 0.007 µM and 0.002 µM, respectively.
For `COc1ccc(F)cc1-c1nnc(Nc2ccc(Oc3ccnc4cc(C#N)ccc34)cc2)c2ccccc12` [compound 87, 4-((4-((4-(5-fluoro-2-(methyloxy)phenyl)-1-phthalazinyl)amino)phenyl)oxy)-7-quinolinecarbonitrile], in that order: 0.142 µM and 0.013 µM.
For `COc1cnc2c(Oc3ccc(Nc4nnc(-c5sccc5C)c5ccccc45)cc3)ccnc2c1` [compound 185, N-(4-((7-(methyloxy)-1,5-naphthyridin-4-yl)oxy)phenyl)-4-(3-methyl-2-thienyl)-1-phthalazinamine], in that order: 0.231 µM and 0.006 µM.
